Measurements taken from patent US9221800B2, “Isoxazole treatments for diabetes” (The Board of Regents of the University of Texas System, priority 2011, dated 2015).

Columns and labels:
[1] = tested on: MIN6 cells; experiment: Quantitative RT-PCR of endogenous insulin gene expression in MIN6 cells; assay type: cell-based, mouse
Description: FIGS. 2A-E. Isx (LSH-1) activates insulin expression and improves β cell function in MIN6 cells. (FIG. 2A) Dose-response relationship of MIN6 cells treated with 5-80 μM Isx for 24 h or DMSO (0.08%—similar to the highest concentration of Isx). Whole cell lysates (40 μg) were subjected to immunoblotting using antibodies against BETA2NeuroD1, MafA, PDX-1, pERK1/2 (pT183/pY185), acetylated histones ACH4-K5K8K12K16 and ACH3K9 and total histone H3. (FIG. 2B) Quantitative RT-PCR of murine insulin1 and insulin2 gene expression in MIN6 cells treated with Isx for 24 h as in FIG. 2A. (FIG. 2C) GSIS in 15 min from MIN6 cells pretreated with Isx or vehicle for 48 h in the presence or absence of the MEK1/2 inhibitor U0126 for 24 h. (FIG. 2D) Insulin content measured by ELISA in MIN6 cells treated with Isx for 24 or 48 h. […]
Total RNA was extracted from human islet preparations with TRI reagent according to manufacturer's protocol (Ambion). cDNA was prepared from total RNA by a mixture of random hexamer- and oligo-dT-primed reverse transcription (iScript Biorad). The expression of insulin and glucagon relative to 18S RNA was evaluated by TaqMan assays (Applied Biosystems). Relative expression of pancreatic factors was determined using Power SYBR Green PCR Master Mix (Applied Bio systems). […]

[2] = tested on: HAT; experiment: HAT activity in nuclear extracts of treated MIN6 cells; assay type: cell-based, mouse
Description: The histone acetyl transferase and deacetylase activities were measured in 50 μg of nuclear protein using the HAT and HDAC activity colorimetric assay kits from Biovision Biotechnology according to manufacturer's recommendations.

[3] = molecular target: T1, p300 (Homo sapiens, UniProt Q09472); experiment: HAT activity of HATs expressed in 293 cells; assay type: cell-based; conditions: combination of ERK2 expression and Isx, 24 h (FIG. 8)
T1 construct: expressed in transfected cells; host or cells: HEK293
T1 sequence (Q09472 whole entry, species assumed): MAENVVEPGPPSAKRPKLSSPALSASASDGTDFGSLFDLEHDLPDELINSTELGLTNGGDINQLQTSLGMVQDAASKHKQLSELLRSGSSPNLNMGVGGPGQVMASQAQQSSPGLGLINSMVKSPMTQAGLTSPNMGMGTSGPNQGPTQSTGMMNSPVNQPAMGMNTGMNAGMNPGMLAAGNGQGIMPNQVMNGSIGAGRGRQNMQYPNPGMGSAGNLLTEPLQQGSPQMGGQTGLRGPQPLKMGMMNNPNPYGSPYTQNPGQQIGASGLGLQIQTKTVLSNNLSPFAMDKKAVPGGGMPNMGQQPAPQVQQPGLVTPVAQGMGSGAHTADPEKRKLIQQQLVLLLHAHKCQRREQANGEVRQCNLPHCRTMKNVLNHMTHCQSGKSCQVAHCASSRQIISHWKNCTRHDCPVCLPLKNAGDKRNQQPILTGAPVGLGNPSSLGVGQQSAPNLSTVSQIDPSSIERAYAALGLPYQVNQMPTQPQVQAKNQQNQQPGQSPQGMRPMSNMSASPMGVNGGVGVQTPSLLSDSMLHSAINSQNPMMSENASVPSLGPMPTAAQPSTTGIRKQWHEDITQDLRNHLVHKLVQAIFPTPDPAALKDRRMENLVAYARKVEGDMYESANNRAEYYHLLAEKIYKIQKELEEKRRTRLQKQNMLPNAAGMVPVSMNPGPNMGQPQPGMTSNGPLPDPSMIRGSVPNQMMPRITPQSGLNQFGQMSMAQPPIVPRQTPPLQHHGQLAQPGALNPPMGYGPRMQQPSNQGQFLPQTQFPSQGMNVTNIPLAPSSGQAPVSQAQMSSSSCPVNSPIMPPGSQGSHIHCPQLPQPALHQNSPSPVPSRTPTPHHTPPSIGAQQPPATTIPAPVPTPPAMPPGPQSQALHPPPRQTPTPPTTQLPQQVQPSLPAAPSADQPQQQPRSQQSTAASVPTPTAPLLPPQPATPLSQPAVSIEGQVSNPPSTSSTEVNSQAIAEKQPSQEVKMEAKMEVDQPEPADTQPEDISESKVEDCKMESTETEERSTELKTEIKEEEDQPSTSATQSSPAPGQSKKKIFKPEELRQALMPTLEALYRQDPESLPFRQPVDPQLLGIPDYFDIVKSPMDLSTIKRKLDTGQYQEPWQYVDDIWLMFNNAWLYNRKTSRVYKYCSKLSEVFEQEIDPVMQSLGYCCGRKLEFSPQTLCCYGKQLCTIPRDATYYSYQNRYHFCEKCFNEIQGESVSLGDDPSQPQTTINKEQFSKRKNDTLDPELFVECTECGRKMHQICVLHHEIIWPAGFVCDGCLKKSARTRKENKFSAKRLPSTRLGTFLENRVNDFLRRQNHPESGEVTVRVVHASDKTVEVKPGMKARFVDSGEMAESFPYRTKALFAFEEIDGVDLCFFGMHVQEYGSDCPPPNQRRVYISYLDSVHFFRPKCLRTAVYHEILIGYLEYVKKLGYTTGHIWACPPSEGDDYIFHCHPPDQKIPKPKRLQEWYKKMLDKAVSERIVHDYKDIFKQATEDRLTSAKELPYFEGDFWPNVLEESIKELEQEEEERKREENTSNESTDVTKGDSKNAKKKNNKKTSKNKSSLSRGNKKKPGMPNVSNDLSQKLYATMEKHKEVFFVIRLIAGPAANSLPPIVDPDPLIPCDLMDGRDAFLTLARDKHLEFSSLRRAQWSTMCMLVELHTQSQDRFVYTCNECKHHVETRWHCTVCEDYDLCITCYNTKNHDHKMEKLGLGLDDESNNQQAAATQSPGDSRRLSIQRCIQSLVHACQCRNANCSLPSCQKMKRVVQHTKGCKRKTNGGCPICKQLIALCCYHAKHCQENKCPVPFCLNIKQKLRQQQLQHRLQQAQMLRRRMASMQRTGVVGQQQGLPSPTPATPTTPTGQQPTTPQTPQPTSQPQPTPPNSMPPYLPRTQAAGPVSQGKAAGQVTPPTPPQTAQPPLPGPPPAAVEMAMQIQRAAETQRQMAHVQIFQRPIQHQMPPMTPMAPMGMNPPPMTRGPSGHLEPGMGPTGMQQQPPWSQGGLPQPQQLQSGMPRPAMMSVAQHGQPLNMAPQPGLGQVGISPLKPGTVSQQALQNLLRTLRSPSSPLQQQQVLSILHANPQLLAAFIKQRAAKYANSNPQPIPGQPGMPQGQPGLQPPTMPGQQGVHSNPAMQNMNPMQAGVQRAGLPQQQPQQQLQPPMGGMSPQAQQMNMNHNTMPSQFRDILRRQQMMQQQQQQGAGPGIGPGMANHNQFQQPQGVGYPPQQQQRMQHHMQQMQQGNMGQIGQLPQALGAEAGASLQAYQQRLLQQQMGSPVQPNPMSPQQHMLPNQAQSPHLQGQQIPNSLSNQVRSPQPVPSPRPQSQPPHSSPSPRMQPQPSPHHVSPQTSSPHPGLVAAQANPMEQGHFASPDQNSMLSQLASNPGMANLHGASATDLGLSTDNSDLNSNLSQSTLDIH
Description: (§1) (FIG. 8A) Combined effect of Isx treatment for 24 h and WT ERK2 (W) or kinase dead K52R ERK2 (R) on the HAT activities of p300, and (FIG. 8B) other HATs, CBP, PCAF and GCN5-L2, transfected in HEK293 cells.

[4] = tested on: human islets; experiment: Immunohistochemical staining of cultured human islets; assay type: cell-based; conditions: islets in culture for 2 months, Isx for 2 days (FIG. 1E)
Description: FIGS. 1A-E. Isx (LSH-1) induces expression of insulin and transcription factors in primary cultured human islets. (FIG. 1A) Primary human islets that had been cultured in RPMI 160 for 6 months were treated with vehicle or 40 μM Isx for 1 or 2 d. Expression of human insulin and glucagon genes was assessed by Taqman quantitative RT-PCR. (FIG. 1B) Insulin secretion measured by ELISA over 24 h from islets treated with Isx or vehicle for 1 or 2 d. (FIG. 1C) Total insulin content of islets cultured for 3 mo and fresh islets, each treated for 48 h with Isx or DMSO. (FIG. 1D) Time course of pancreatic gene induction in islets cultured for 1 year treated with DMSO (8 days) or 40 μM Isx for 2, 4 or 8 days. (FIG. 1E) Immunohistochemical staining using antibodies against insulin, BETA2, Neurogenin3 (Ngn3) and MafA of islets cultured for 2 months and treated with Isx or vehicle for 48 h. Nuclei were stained with DAPI.

[5] = molecular target: T2, CBP (Homo sapiens, UniProt Q92793); experiment: HAT activity of HATs expressed in 293 cells; assay type: cell-based; conditions: combination of ERK2 expression and Isx, 24 h (FIG. 8)
T2 construct: expressed in transfected cells; host or cells: HEK293
T2 sequence (Q92793 whole entry): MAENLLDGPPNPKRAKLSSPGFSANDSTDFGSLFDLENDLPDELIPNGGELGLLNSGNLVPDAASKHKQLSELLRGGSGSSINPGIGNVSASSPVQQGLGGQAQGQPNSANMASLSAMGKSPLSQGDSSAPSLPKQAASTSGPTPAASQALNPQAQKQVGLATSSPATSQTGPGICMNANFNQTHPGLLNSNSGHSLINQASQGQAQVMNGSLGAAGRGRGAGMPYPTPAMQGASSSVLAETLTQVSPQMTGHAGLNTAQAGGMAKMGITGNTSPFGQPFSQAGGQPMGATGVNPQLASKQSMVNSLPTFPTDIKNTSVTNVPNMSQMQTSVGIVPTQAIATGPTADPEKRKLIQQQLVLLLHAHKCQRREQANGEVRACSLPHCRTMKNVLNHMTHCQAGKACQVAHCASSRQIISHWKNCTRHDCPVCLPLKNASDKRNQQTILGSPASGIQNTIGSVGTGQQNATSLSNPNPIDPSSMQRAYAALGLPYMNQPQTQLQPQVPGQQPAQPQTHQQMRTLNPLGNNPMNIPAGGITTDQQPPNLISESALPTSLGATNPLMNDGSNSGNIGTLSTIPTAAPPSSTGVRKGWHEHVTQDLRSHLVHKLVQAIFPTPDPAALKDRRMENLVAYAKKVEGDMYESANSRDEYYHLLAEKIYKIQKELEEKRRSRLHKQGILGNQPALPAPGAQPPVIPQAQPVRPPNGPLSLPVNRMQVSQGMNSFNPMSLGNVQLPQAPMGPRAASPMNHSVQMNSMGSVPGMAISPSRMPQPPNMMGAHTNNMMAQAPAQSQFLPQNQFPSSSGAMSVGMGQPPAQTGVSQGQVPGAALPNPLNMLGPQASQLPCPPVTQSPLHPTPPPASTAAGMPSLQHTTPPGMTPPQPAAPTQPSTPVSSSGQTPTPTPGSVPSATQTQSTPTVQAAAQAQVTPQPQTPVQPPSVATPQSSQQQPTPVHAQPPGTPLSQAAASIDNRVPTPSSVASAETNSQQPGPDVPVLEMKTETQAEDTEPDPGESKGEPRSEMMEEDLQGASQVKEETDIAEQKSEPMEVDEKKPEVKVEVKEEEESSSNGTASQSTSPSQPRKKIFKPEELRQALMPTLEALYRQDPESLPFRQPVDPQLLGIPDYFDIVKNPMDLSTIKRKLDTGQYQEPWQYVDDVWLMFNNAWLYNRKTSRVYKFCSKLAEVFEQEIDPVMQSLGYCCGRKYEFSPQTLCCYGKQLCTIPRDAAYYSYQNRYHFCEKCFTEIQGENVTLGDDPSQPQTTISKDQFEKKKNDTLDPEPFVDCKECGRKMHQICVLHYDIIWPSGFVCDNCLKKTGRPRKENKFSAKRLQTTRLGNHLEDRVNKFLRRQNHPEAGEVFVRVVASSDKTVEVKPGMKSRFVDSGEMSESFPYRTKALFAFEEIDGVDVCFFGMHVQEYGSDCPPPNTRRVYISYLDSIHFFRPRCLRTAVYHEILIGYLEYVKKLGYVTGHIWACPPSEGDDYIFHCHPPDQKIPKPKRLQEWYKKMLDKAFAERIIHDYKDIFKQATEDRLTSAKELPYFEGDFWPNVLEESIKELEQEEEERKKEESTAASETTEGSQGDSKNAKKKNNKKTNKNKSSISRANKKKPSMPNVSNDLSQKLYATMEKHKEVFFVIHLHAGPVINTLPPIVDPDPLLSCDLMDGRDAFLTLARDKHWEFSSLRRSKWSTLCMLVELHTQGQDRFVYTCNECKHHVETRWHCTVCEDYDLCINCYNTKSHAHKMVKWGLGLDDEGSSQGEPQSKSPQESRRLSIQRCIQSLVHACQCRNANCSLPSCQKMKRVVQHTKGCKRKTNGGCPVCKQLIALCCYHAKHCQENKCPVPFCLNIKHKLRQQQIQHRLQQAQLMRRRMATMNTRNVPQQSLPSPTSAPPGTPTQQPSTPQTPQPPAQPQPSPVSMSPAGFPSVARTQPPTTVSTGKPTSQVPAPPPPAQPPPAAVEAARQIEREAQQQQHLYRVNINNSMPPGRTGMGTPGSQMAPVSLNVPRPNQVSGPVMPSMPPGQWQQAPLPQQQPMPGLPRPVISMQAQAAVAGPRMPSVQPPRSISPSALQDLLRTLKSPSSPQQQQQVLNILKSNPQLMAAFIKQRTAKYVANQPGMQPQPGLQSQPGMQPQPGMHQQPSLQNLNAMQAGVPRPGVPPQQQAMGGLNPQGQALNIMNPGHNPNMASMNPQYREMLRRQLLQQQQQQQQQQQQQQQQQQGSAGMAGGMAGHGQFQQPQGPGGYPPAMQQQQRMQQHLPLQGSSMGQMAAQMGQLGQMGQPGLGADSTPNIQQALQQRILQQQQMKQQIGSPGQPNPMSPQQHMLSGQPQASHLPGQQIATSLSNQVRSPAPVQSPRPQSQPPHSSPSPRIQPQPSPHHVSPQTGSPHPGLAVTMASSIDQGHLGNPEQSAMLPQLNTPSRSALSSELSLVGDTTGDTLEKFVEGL
Description: as §1

[6] = tested on: human islets; experiment: Gene expression by quantitative RT-PCR in cultured human islets; assay type: cell-based
Description: MIN6 cells were cultured in DMEM (Gibco), containing 25 mM glucose, 10% fetal bovine serum, 10 mM Hepes pH 7.4, 10.2 mM L-glutamine, […] sodium pyruvate, 2.5 mM β-mercaptoethanol, 100 U/ml penicillin and 100 μg/ml streptomycin at 37° C. in 10% CO2. Human islets were obtained from the ICR Basic Science Islet Distribution and from the University of Alabama, Birmingham Islet Resource Facility and were cultured in RPMI 1640 with 11 mM glucose for up to 1 year. The medium was changed twice weekly and the islets were subcultured when they reached 90% confluence. For Isx treatments, cells were incubated in medium containing either Isx or the equivalent volume of DMSO vehicle (0.04%). To measure GSIS, cells were placed in Krebs-Ringer bicarbonate/Hepes containing 0.1% bovine serum albumin and 2 mM glucose for 2 h, and stimulated for 15 min with 20 mM glucose, a 1× amino-acid mixture (concentrations as in DMEM), or 50 nM Exendin-4. U0126 (10 μM), nifedipine (3 μM), BAPTA (10 μM), wortmanin (0.5 μM) or FK506 (0.1 μM) were added for 1-24 h as indicated.
Total RNA was extracted from human islet preparations with TRI reagent according to manufacturer's protocol (Ambion). cDNA was prepared from total RNA by a mixture of random hexamer- and oligo-dT-primed reverse transcription (iScript Biorad). The expression of insulin and glucagon relative to 18S RNA was evaluated by TaqMan assays (Applied Biosystems). Relative expression of pancreatic factors was determined using Power SYBR Green PCR Master Mix (Applied Bio systems). Primer sequences for qRT-PCR are in STable 1. SYBR Green and TaqMan probe-based PCR was performed using the ABI 7500 DNA Sequence Detection System with standard fluorescent chemistries and thermal cycling conditions specified by the manufacturer: 50° C. for 2 min, 95° C. for 10 min for one cycle and an additional 40 cycles at 95° C. for 15 sec, and then 58° C. for 1 min.

[7] = molecular target: T3, PCAF (Homo sapiens, UniProt Q92831); experiment: HAT activity of HATs expressed in 293 cells; assay type: cell-based; conditions: combination of ERK2 expression and Isx, 24 h (FIG. 8)
T3 construct: expressed in transfected cells; host or cells: HEK293
Description: as §1

[8] = human islets in culture for 6 months, Isx for 1-2 days (40 μM, FIG. 1A)
[9] = islets in culture for one year, 40 μM Isx 2-8 days

With `O=C(NC1CC1)c1cc(-c2cccs2)on1` [Isx, N-cyclopropyl-5-(thiophen-2-yl)isoxazole-3-carboxamide] the “increase in preproinsulin mRNA” value ([1]; Isx 24 h (FIG. 2B)) was no more than 4 fold, the “concentration for optimal activation of endogenous insulin gene expression” value ([1]; MIN6 cells (FIG. 12)) was 20 µM and the HAT activity increase ([2]; nuclear extracts from Isx-treated MIN6 cells, 24 h (FIG. 4C)) was roughly 2 fold. For the same compound, the “HAT activity in nuclear extracts of MIN6 cells expressing p300” value ([2]; over and above that from expressed p300) was “increased”, the “p300 HAT activity” value [3] was “increased” and the “Ngn3, BETA2, and insulin immunostaining” value [4] was “obvious increase”. The “CBP HAT activity” value [5] was “increased”, the “glucagon mRNA decrease” value [6, 8] was roughly 80% and the “preproinsulin mRNA” value [6, 8] was “large increase”. For the same compound, the “PCNA and Oct4 mRNA expression” value ([6]; islets in culture for one year) was “Neither PCNA, an indicator of proliferation, nor Oct4, a factor associated with stem cells, showed consistent or substantial changes in mRNA expression”, the “increases in PDX-1, the Hnfs, and Isl1 mRNA” value [6, 9] was “relatively small” and the “increases in the other factors (mRNA; other than PDX-1, the Hnfs, Isl1)” value [6, 9] was “more than 10 fold”. For the same compound, the “Preproinsulin mRNA increase” value ([6]; islets in culture for one year, after several days of Isx exposure (FIG. 1D)) was no less than 50 fold, the “Preproinsulin mRNA increase” value ([6]; islets in culture for one year, at 24 h (FIG. 1D)) was 10 fold and the “expression of glucokinase and Glut2” value ([6]; islets in culture for one year, peaking after 4 days of exposure) was “increased markedly”. For the same compound, the “PCAF HAT activity” value [7] was “not”.
